Results: US5521173A, “Tricyclic benzazepine vasopressin antagonists” (American Home Products Corporation, priority 1995, dated 1996)
pIC50: −log10 of the molar value.

Columns and labels:
Vasopressin V2 = Vasopressin V2 Antagonist Activity in Conscious Hydrated Rats; assay type: in vivo, rat; conditions: 10 mg/kg orally, AVP 0.4 μg/kg i.p.; for Osmolality: urine
Experimental: Two to four rats are used for each compound. One hour later, arginine vasopressin (AVP, antidiuretic hormore, ADH) dissolved in peanut oil is administered at 0.4 μg/kg intraperitoneally. Two rats in each test would not receive arginine vasopressin but only the vehicle (peanut oil) to serve as water-loading control. Twenty minutes later each rat is given 30 mL/kg of deionized water orally by gavage and is placed individually in a metabolic cage equipped with a funnel and a graduated glass cylinder to collect urine for four hours. Urine volume is measured and osmolality analyzed by use of a Fiske One-Ten osmometer (Fiske Assoc., Norwood, Mass., USA). Urinary sodium, potassium, and chloride are analyzed by use of ion-specific electrodes in a Beckman E3 (Electrolyte 3) Analyzer. In the following results, […] and decreased osmolality relative to AVP-control indicates activity.

Vasopressin V1 = Vasopressin V1 Antagonist Activity in Conscious Rats (vasopressin vasopressor response); assay type: in vivo, rat; conditions: 10 mg/kg iv; for Max % Inhibition: vasopressin vasopressor response
Experimental: Vasopressin V1 Antagonist Activity in Conscious Rats Conscious rats are restrained in a supine position with elastic tape. The area at the base of the tail is locally anesthetized by subcutaneous in filtration with 2% procaine (0.2 ml). Using aseptic technique the ventral caudal tail artery is isolated and a cannula made of PE 10 and 20 (heat-fused) tubing is passed into the lower abdominal aorta. The cannula is secured, heparinized (1000 i.u./cc), sealed and the wound closed with one or two stitches of Dexon 4-0. The caudal vein is also cannulated in the same manner for intravenous drug administration. The duration of the surgery is approximately 5 minutes. Additional local anesthesia (2% procaine or lidocaine) is provided as needed. The animals are placed in plastic restraining cages in an upright position. The cannula is attached to a Statham P23Db pressure transducer and pulsatile blood pressure is recorded. […] Percentage of antagonism by the compound is calculated using the pre-drug vasopressin vasopressor response as 100%. The results of this test on representative compounds of this invention in which the dose, the maximum % inhibition and the time in minutes, are shown in Table III.

[1] = target: T1, Vasopressin V1 receptor subtype in Human Platelet Membranes (Homo sapiens, UniProt P37288); test: Binding to Vasopressin V1 receptor subtype in Human Platelet Membranes
T1 construct: tissue Hudson Valley Blood Services, Westchester Medical Center, Valhalla, N.Y; host or cells: human platelets (frozen platelet rich plasma)
Experimental: Radioligand Binding Experiments with Human Platelet Membranes
(a) Platelet Membrane Preparation
Frozen platelet rich plasma (PRP), (Platelet Source: Hudson Valley Blood Services, Westchester Medical Center, Valhalla, N.Y.) are thawed to room temperature. The tubes containing the PRP are centrifuged at 16,000×g for 10 min. at 4° C. and the supernatant fluid discarded. The platelets resuspended in an equal volume of 50.0 mM Tris.HCl, pH 7.5 containing 120 mM NaCl and 20.0 mM EDTA. The suspension is recentrifuged at 16,000× g for 10 min. This washing step is repeated one more time. The wash discarded and the lysed pellets homogenized in low ionic strength buffer of Tris.HCl, 5.0 mM, pH 7.5 containing 5.0 mM EDTA. The homogenate is centrifuged at 39,000× g for 10 min. The resulting pellet is resuspended in Tris.HCl buffer, 70.0 mM, pH 7.5 and recentrifuged at 39,000× g for 10 min. The final pellet is resuspended in 50.0 mM Tris.HCl buffer pH 7.4 containing 120 mM NaCl and 5.0 mM KCl to give 1.0-2.0 mg protein per ml of suspension.
(b) Binding to Vasopressin V1 receptor subtype in Human Platelet Membranes
In wells of a 96 well format microtiter plate, add 100 μl of 50.0 mM Tris.HCl buffer containing 0.2% BSA and a mixture of protease inhibitors (aprotinin, leupeptin etc.). Then add 20 μl of [^3 H]Ligand (Manning or Arg^8 Vasopressin), to give final concentrations ranging from 0.01 to 10.0 nM. Initiate the binding by adding 80.0 μl of platelet suspension (approx. 100 μg protein). Mix all reagents by pipetting the mixture up and down a few times. Non specific binding is measured in the presence of 1.0 µM of unlabeled ligand (Manning or Arg^8 Vasopressin). Let the mixture stand undisturbed at room temperature for ninety (90) min. Upon this time, rapidly filter off the incubate under vacuum suction over GF/B filters, using a Brandel Harvester. Determine the radioactivity caught on the filter disks by the addition of liquid scintillant and counting in a liquid scintillator.

T1 sequence (P37288 whole entry): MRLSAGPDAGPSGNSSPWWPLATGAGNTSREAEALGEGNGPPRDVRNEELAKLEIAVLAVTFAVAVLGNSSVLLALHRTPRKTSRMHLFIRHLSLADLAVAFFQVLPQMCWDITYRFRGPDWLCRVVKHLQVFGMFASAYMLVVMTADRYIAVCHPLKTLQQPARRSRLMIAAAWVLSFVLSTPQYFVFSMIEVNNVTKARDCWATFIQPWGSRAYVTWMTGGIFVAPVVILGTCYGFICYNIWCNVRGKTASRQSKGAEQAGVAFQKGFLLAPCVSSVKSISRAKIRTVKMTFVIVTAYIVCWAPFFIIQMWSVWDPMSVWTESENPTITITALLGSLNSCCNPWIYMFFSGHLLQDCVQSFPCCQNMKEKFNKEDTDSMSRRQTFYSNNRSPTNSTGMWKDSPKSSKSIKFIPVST

SMILES	pIC50 [1]	Urine Volume (Vasopressin V2) [ml/4 hrs]	Osmolality (Vasopressin V2) [mOsm/kg]	Time (of maximum % inhibition) (Vasopressin V1) [min]	Max % Inhibition (Vasopressin V1) [%]
O=C(c1ccc(-c2ccccn2)cc1)N1Cc2cccn2Cc2ccccc21 [Example 9, 10,11-Dihydro-10-[4-(2-pyridinyl)benzoyl]-5H-pyrrolo[2,1-c][1,4]benzodiazepine]	–	8.3	857	30	70
O=C(c1ccc(-c2ccccc2C(F)(F)F)cc1)N1Cc2cccn2Cc2ccccc21 [Example 8]	–	8	887	–	–

More lines, main results first:

pIC50 [1]	SMILES	Urine Volume (Vasopressin V2) [ml/4 hrs]	Osmolality (Vasopressin V2) [mOsm/kg]	Time (of maximum % inhibition) (Vasopressin V1) [min]	Max % Inhibition (Vasopressin V1) [%]
7.07	O=C(c1ccc(-c2cc(F)cc(F)c2)cc1)N1Cc2cccn2Cc2ccccc21 [Example 3, 10,11-Dihydro-10-[4-(3,5-difluorophenyl)benzoyl]-5H-pyrrolo[2,1-c][1,4]benzodiazepine]	5.9	1205	30	92
8.54	O=C(c1ccc(-c2ccccc2)cc1)N1Cc2cccn2Cc2ccccc21 [Example 19, 10-([1,1'-Biphenyl]-4-ylcarbonyl)-10,11-dihydro-5H-pyrrolo[2,1-c][1,4]benzodiazepine]	3.5	1598	30	60
7.85	O=C(c1ccc(-c2ccccc2)cc1)N1Cc2ccnn2Cc2ccccc21 [Example 7, 5-([1,1'-Biphenyl]-4-ylcarbonyl)-5,10-dihydro-4H-pyrazolo[5,1-c][1,4]benzodiazepine]	7.5	1005	30	90
